Test results published in patent publication US20090030086A1, “ANTIMICROBIAL AGENTS” (priority 2005, published 2009).
Converted amounts (≈) assume the structure as drawn. Read-outs that look alike come from different tables or passages of the source.

Experiments:
P. acnes NCTC 737 [1] = test: MBC assay; type: cell-based, Propionibacterium acnes; settings: P. acnes NCTC 737
Method in brief: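 Plates were then checked visually for growth. The MBC is the lowest lethal concentration; cultures were grown on Wilkins-Chalgren Anaerobe Medium at pH 6.0.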

P. acnes NCTC 737 [2] = test: MIC assay; type: cell-based, Propionibacterium acnes; settings: P. acnes NCTC 737, Wilkins-Chalgren broth pH 6.0, anaerobic, 37° C., 72 hours
Method in brief: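 Broth microdilution in Wilkins-Chalgren Anaerobe broth pH 6.0, inoculated with freshly grown P. acnes NCTC 737 and incubated anaerobically at 37° C for 72 hours. MIC is the lowest compound concentration leaving the well visually clear, read on a light box. Run in duplicate with medium-only and solvent-plus-inoculum controls.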

S. aureus ATCC 29213 [3] = test: MIC assay; type: cell-based, Staphylococcus aureus; settings: S. aureus ATCC 29213, Mueller-Hinton broth pH 7.2, aerobic, 37° C., 24 hours
Method in brief: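 Broth microdilution in Mueller-Hinton broth at pH 7.2, incubated aerobically at 37 °C for 24 h and run in duplicate with medium-only and solvent/inoculum controls. The MIC was the lowest concentration whose well stayed visibly clear.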

P. acnes NCTC 737 [4] = test: Disc diffusion assay (DDA); type: cell-based, Propionibacterium acnes; settings: P. acnes NCTC 737, unsupplemented agar, 200 μg per disc (2,6-dimethoxy-p-benzoquinone 100 μg)
S. aureus ATCC 29213 [5] = test: Disc diffusion assay (DDA); type: cell-based, Staphylococcus aureus; settings: S. aureus ATCC 29213, unsupplemented agar, 200 μg per disc (thymoquinone 50 μg, 2,6-dimethoxy-p-benzoquinone 100 μg)
Method in brief: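 Paper discs loaded with test compound (usually 200 μg/disc), solvent evaporated ≥30 min, placed on inoculated Mueller-Hinton agar pH 7.2. Incubated aerobically at 37 °C for 24 h; inhibition zone diameter measured and area calculated as π(D/2)^2.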

S. aureus ATCC 29213 [6] = test: MBC assay; type: cell-based, Staphylococcus aureus
Method in brief: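 Follows an MIC assay; samples sub-cultured onto non-selective agar and inspected visually for growth to give the minimum lethal concentration. Culture on Mueller-Hinton medium, pH 7.2, aerobic, 37° C, 24 hours.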

P. acnes NCTC 737 [7] = test: Supplemented disc diffusion assay; type: cell-based, Propionibacterium acnes; settings: P. acnes NCTC 737, 200 μg per disc (2,6-dimethoxy-p-benzoquinone 100 μg); for zone of inhibition at 200 µg/disc: Cutibacterium acnes, NCTC737, 72 h
Method in brief: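 Propionibacterium discs loaded with 200 μg compound on Wilkins-Chalgren Anaerobe agar, pH 6.0, supplemented with Tween 80 (1% v/v) and NaCl (100 mM); anaerobic incubation at 37 °C for 72 h. Inhibition zone diameter measured by automated zone sizer.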

S. aureus ATCC 29213 [8] = test: Supplemented disc diffusion assay; type: cell-based, Staphylococcus aureus; settings: S. aureus ATCC 29213, 200 μg per disc (thymoquinone 50 μg, 2,6-dimethoxy-p-benzoquinone 100 μg); for zone of inhibition at 200 µg/disc: Staphylococcus aureus, ATCC29213, 24 h
Method in brief: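 Paper discs loaded with compound (200 μg per disc for most assays) placed on inoculated Mueller-Hinton agar, pH 7.2, supplemented with 5% v/v defibrinated horse blood, 1% v/v Tween 80 and 100 mM NaCl. Aerobic incubation at 37° C for 24 h; inhibition zone diameter measured.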

[9] = defibrinated horse blood 5% v/v
[10] = Tween 80 at 1% v/v, read-out: DDA + lipid
[11] = sodium chloride 100 mM, read-out: DDA + salt

| SMILES | MBC (P. acnes NCTC 737 [1]) | MIC/MBC ratio (P. acnes NCTC 737 [1]) | MIC (P. acnes NCTC 737 [2]) | MIC (S. aureus ATCC 29213 [3]) | DDA (diameter of zone of inhibition) (P. acnes NCTC 737 [4]) | DDA (diameter of zone of inhibition) (S. aureus ATCC 29213 [5]) | MBC (S. aureus ATCC 29213 [6]) | MIC/MBC ratio (S. aureus ATCC 29213 [6]) | DDA + lipid (P. acnes NCTC 737 [7]; Tween 80 at 1% v/v) | DDA + salt (P. acnes NCTC 737 [7]; sodium chloride 100 mM) | DDA + lipid (S. aureus ATCC 29213 [8]; Tween 80 at 1% v/v) | DDA + blood (S. aureus ATCC 29213 [8]; [9]) | DDA + salt (S. aureus ATCC 29213 [8]; sodium chloride 100 mM) | other results |
| --- | --- | --- | --- | --- | --- | --- | --- | --- | --- | --- | --- | --- | --- | --- |
| Oc1c(Cl)c(Cl)c(O)c(Cl)c1Cl [tetrachloro-p-hydroquinone] | 31.25 µg/mL (≈ 126 µM) | 1 | 31.25 µg/mL (≈ 126 µM) | 125 µg/mL (≈ 504 µM) | 25.37 mm | 16.25 mm | 125 µg/mL (≈ 504 µM) | 1 | 0.0 mm | 28.27 mm | 14.69 mm | 9.38 mm | 16.88 mm |  |
| Oc1c(F)c(F)c(O)c(F)c1F [tetrafluoro-p-hydroquinone] | 125 µg/mL (≈ 687 µM) | 0.5 | 62.5 µg/mL (≈ 343 µM) | 125 µg/mL (≈ 687 µM) | 33.86 mm | 10.83 mm | 125 µg/mL (≈ 687 µM) | 1 | 0.0 mm | 36.35 mm | 9.38 mm | 0.0 mm | 11.25 mm |  |
| Cc1cc(O)c(C(C)C)cc1O [thymohydroquinone] |  | 1 |  |  |  |  |  | 0.5 |  |  |  |  |  | MBC (P. acnes NCTC 737 [1]; Cutibacterium acnes, NCTC737, read-out: MBC): 31.2 µg/mL (≈ 188 µM); MIC (P. acnes NCTC 737 [2]; Cutibacterium acnes, NCTC737, read-out: MIC): 31.2 µg/mL (≈ 188 µM); MIC (S. aureus ATCC 29213 [3]; Staphylococcus aureus, ATCC29213, read-out: MIC): 7.8 µg/mL (≈ 46.9 µM); zone of inhibition at 200 µg/disc (P. acnes NCTC 737 [4]; Cutibacterium acnes, NCTC737, read-out: DDA (diameter of zone of inhibition)): 9.82 mm; zone of inhibition at 200 µg/disc (S. aureus ATCC 29213 [5]; Staphylococcus aureus, ATCC29213, read-out: DDA (diameter of zone of inhibition)): 57.6 mm; MBC (S. aureus ATCC 29213 [6]; Staphylococcus aureus, ATCC29213, read-out: MBC): 15.6 µg/mL (≈ 93.9 µM); zone of inhibition at 200 µg/disc (P. acnes NCTC 737 [7]; [10]): 0 mm; zone of inhibition at 200 µg/disc (P. acnes NCTC 737 [7]; [11]): 9.61 mm; zone of inhibition at 200 µg/disc (S. aureus ATCC 29213 [8]; [10]): 41.7 mm; zone of inhibition at 200 µg/disc (S. aureus ATCC 29213 [8]; defibrinated horse blood 5% v/v, read-out: DDA + blood): 10.3 mm; zone of inhibition at 200 µg/disc (S. aureus ATCC 29213 [8]; [11]): 57.6 mm |
